In paper PMC3177827 (PLoS ONE, 2011):
Entries after “also recorded” stand apart in the source; their conditions may differ. The star is where a group is joined. pNA = O=[N+]([O-])c1ccc(N*)cc1; Cbz = O=C(OCc1ccccc1)*

Legend:
[1] = WSAN-14 (Bifidobacterium longum HOT-B54) bacterial suspension in saliva ion buffer; settings: up to 24 h
[2] = Whole plaque (Mixture of bacteria) suspension in saliva ion buffer; settings: human, up to 24 h
[3] = WSAN-16 (Bifidobacterium longum HOT-B54) bacterial suspension in saliva ion buffer; settings: up to 24 h
[4] = mixed human dental plaque bacteria; settings: cited from earlier work
[5] = PAN-0 (Streptococcus pneumoniae HOT-734) bacterial suspension in saliva ion buffer; settings: up to 24 h
[6] = WSA-7A (Streptococcus mitis HOT-677) bacterial suspension in saliva ion buffer; settings: up to 24 h
[7] = PAN-5 (Bifidobacterium dentium HOT-588) bacterial suspension in saliva ion buffer; settings: up to 24 h
[8] = PAN-8 (Bifidobacterium dentium HOT-588) bacterial suspension in saliva ion buffer; settings: up to 24 h
[9] = PAN-18 (Bifidobacterium dentium HOT-588) bacterial suspension in saliva ion buffer; settings: up to 24 h
[10] = WSAN-25 (Veilonella atypica HOT-524) bacterial suspension in saliva ion buffer; settings: up to 24 h
[11] = WSA-10 (Staphylococcus epidermidis HOT-601) bacterial suspension in saliva ion buffer; settings: up to 24 h
[12] = WSAN-24 (Bifidobacterium longum HOT-B54) bacterial suspension in saliva ion buffer; settings: up to 24 h
[13] = WSA-8 (Rothia aeria HOT-188) bacterial suspension in saliva ion buffer; settings: up to 24 h
[14] = bacterial suspension in saliva ion buffer (OD620 1.2); settings: up to 24 h
[15] = WSA-26 (Rothia mucilaginosa HOT-681) bacterial suspension in saliva ion buffer; settings: up to 24 h
[16] = PAN-23 (Bifidobacterium dentium HOT-588) bacterial suspension in saliva ion buffer; settings: up to 24 h
[17] = PAN-19 (Bifidobacterium dentium HOT-588) bacterial suspension in saliva ion buffer; settings: up to 24 h
[18] = WSA-2B (Rothia mucilaginosa HOT-681) bacterial suspension in saliva ion buffer; settings: up to 24 h
[19] = system: chymotrypsin; test: chymotrypsin (1 µg/ml in 50 mM ammonium bicarbonate, pH 8.0); settings: up to 24 h
[20] = mammalian enzymes; settings: cited from earlier work
[21] = system: pepsin; test: pepsin (1 µg/ml in 0.1 M HCl, pH 1.0); settings: up to 24 h
[22] = strain WSA-8 (R. aeria) in saliva ion buffer (OD620 1.2, pH 7.0); settings: Rothia aeria, up to 5 h
[23] = system: trypsin; test: trypsin (1 µg/ml in 50 mM ammonium bicarbonate, pH 8.0); settings: up to 24 h
[24] = Bifidobacterium dentium HOT-588 (strain PAN-5)
[25] = Bifidobacterium dentium HOT-588 (strain PAN-8)
[26] = Bifidobacterium dentium HOT-588 (strain PAN-18)
[27] = Bifidobacterium dentium HOT-588 (strain PAN-19)
[28] = Bifidobacterium dentium HOT-588 (strain PAN-23)
[29] = Bifidobacterium longum HOT-B54 (strain WSAN-14)
[30] = Bifidobacterium longum HOT-B54 (strain WSAN-16)
[31] = Bifidobacterium longum HOT-B54 (strain WSAN-24)
[32] = Rothia aeria HOT-188 (strain WSA-8)
[33] = Rothia mucilaginosa HOT-681 (strain WSA-2B)
[34] = Rothia mucilaginosa HOT-681 (strain WSA-26)
[35] = Staphylococcus epidermidis HOT-601 (strain WSA-10)
[36] = Streptococcus mitis HOT-677 (strain WSA-7A)
[37] = Streptococcus pneumoniae HOT-734 (strain PAN-0)
[38] = Veilonella atypica HOT-524 (strain WSAN-25)

| Substance | not cleaved [1] | cleaved bond [2] | not cleaved [3] | cleaved bond [4] | not cleaved [5] | not cleaved [6] | not cleaved [7] | not cleaved [8] | not cleaved [9] | not cleaved [10] | not cleaved [11] | not cleaved [12] | not cleaved [13] | not cleaved [14, 24] | not cleaved [14, 25] | not cleaved [14, 26] | not cleaved [14, 27] | not cleaved [14, 28] | not cleaved [14, 29] | not cleaved [14, 30] | also measured |
| --- | --- | --- | --- | --- | --- | --- | --- | --- | --- | --- | --- | --- | --- | --- | --- | --- | --- | --- | --- | --- | --- |
| Cbz-Gln-Gln-Pro-pNA | − after 24 h incubation | P-pNA | − after 24 h incubation | P-pNA | − after 24 h incubation | − after 24 h incubation | − after 24 h incubation | − after 24 h incubation | − after 24 h incubation | − after 24 h incubation | − after 24 h incubation | − after 24 h incubation | − after 24 h incubation | − after 24 h | − after 24 h | − after 24 h | − after 24 h | − after 24 h | − after 24 h | − after 24 h | not cleaved [14, 31]: − after 24 h; not cleaved [14, 32]: − (not cleaved) after 24 h; not cleaved [14, 33]: − (not cleaved) after 24 h; not cleaved [14, 34]: − (not cleaved) after 24 h; not cleaved [14, 35]: − after 24 h; not cleaved [14, 36]: − after 24 h; not cleaved [14, 37]: − after 24 h; not cleaved [14, 38]: − after 24 h; not cleaved [15]: − after 24 h incubation; not cleaved [16]: − after 24 h incubation; not cleaved [17]: − after 24 h incubation; not cleaved [18]: − after 24 h incubation |
| Cbz-Lys-Pro-Gln-pNA | – | – | – | – | – | – | – | – | – | – | – | – | – | – | – | – | – | – | – | – | cleaved bond [13]: Q-pNA; cleaved bond [18]: Q-pNA |
| Cbz-Pro-Phe-Pro-pNA | − after 24 h incubation | P-pNA | − after 24 h incubation | P-pNA | − after 24 h incubation | − after 24 h incubation | − after 24 h incubation | − after 24 h incubation | − after 24 h incubation | − after 24 h incubation | − after 24 h incubation | − after 24 h incubation | − after 24 h incubation | − after 24 h | − after 24 h | − after 24 h | − after 24 h | − after 24 h | − after 24 h | − after 24 h | not cleaved [14, 31]: − after 24 h; not cleaved [14, 32]: − (not cleaved) after 24 h; not cleaved [14, 33]: − (not cleaved) after 24 h; not cleaved [14, 34]: − (not cleaved) after 24 h; not cleaved [14, 35]: − after 24 h; not cleaved [14, 36]: − after 24 h; not cleaved [14, 37]: − after 24 h; not cleaved [14, 38]: − after 24 h; not cleaved [15]: − after 24 h incubation; not cleaved [16]: − after 24 h incubation; not cleaved [17]: − after 24 h incubation; not cleaved [18]: − after 24 h incubation |
| Cbz-Pro-Pro-Phe-pNA | − after 24 h incubation | F-pNA | − after 24 h incubation | F-pNA | − after 24 h incubation | − after 24 h incubation | − after 24 h incubation | − after 24 h incubation | − after 24 h incubation | − after 24 h incubation | − after 24 h incubation | − after 24 h incubation | − after 24 h incubation | − after 24 h | − after 24 h | − after 24 h | − after 24 h | − after 24 h | − after 24 h | − after 24 h | not cleaved [14, 31]: − after 24 h; not cleaved [14, 32]: − (not cleaved) after 24 h; not cleaved [14, 33]: − (not cleaved) after 24 h; not cleaved [14, 34]: − (not cleaved) after 24 h; not cleaved [14, 35]: − after 24 h; not cleaved [14, 36]: − after 24 h; not cleaved [14, 37]: − after 24 h; not cleaved [14, 38]: − after 24 h; not cleaved [15]: − after 24 h incubation; not cleaved [16]: − after 24 h incubation; not cleaved [17]: − after 24 h incubation; not cleaved [18]: − after 24 h incubation |
| FLQPQQPFPQQPQQPYPQQPQQPFPQ | – | – | – | – | – | – | – | – | – | – | – | – | – | – | – | – | – | – | – | – | not cleaved [19]: resistant to degradation; sampled at t = 24 h; not cleaved [20]: resistant to degradation by mammalian enzymes; not cleaved [21]: resistant to degradation; sampled at t = 24 h; cleaved bond [22]: Y-P, major; not cleaved [23]: resistant to degradation; sampled at t = 24 h |
| LQLQPFPQPQLPYPQPQLPYPQPQLPYPQPQPF | – | – | – | – | – | – | – | – | – | – | – | – | – | – | – | – | – | – | – | – | not cleaved [19]: resistant to degradation; sampled at t = 24 h; not cleaved [20]: resistant to degradation by mammalian enzymes; not cleaved [21]: resistant to degradation; sampled at t = 24 h; cleaved bond [22]: F-P, minor; also recorded: P-Q, minor; also recorded: Q-L, major; also recorded: Y-P, major; also recorded: Q-P, major; not cleaved [23]: resistant to degradation; sampled at t = 24 h |
| benzyloxycarbonyl-YPQ-paranitroanilide | – | Q-pNA | – | Q-pNA | – | – | – | – | – | – | – | – | – | – | – | – | – | – | – | – | cleaved bond [6]: Q-pNA; cleaved bond [13]: Q-pNA; cleaved bond [15]: Q-pNA; cleaved bond [18]: Q-pNA |
